Experimental data from patent publication US10966426B2, “Herbicidal compositions comprising phenylpyrimidines” (BASF SE, priority 2016, dated 2021).
Several values for one entry are separate records, joined by “and”; a condition that tells them apart may be missing. Equal values may be shown once.

How the values were obtained:
Assay type in all cases: in vivo
Avena fatua [1] = experiment: greenhouse pre-emergence treatment, AVEFA; settings: AVEFA
Outline: (§1)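 Damage rated on 0 to 100 scale (0 = normal growth, 100 = no emergence or total above-ground kill) after 2-4 weeks at species-dependent 10-25° C or 20-35° C. Seeds sown per species in loamy sand, ~3.0% humus, treated right after sowing with aqueous spray of single actives or 10% emulsion-concentrate mixtures, then hooded; additive expectation by Colby.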

Galium aparine = experiment: greenhouse pre-emergence treatment, GALAP; settings: GALAP
Outline: as §1

Avena fatua [2] = experiment: greenhouse post-emergence treatment, AVEFA; settings: AVEFA
Outline: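 Scoring used a 0 to 100 scale, with 100 denoting no emergence or full destruction of at least the above-ground parts, recorded within a 2 to 4 week test period. Test plants grew in loamy sand containing about 3.0% humus at 10-25° C. or 20-35° C., after direct sowing or transplanting, and received water-based treatments post-emergence.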

Apera spica-venti = experiment: greenhouse post-emergence treatment, APESV; settings: APESV, 20 DAT
Outline: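 Scale 0–100 damage rating (100 = complete destruction of above-ground parts, 0 = normal growth), read 2 to 4 weeks after post-emergence application of aqueous spray liquor to plants 3–15 cm tall.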

Brachiaria decumbens = experiment: greenhouse pre-emergence treatment, BRADC; settings: BRADC
Outline: as §1

Polygonum aviculare = experiment: greenhouse post-emergence treatment, POLAV; settings: POLAV; for % activity, solo application: Table X4
Outline: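 Greenhouse; post-emergence spray at 3–15 cm; aqueous EC formulation; 2–4 weeks; 0–100 visual score.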

[3] = Ex. 5 solo, 62.5 gai/ha, 20 DAT
[4] = Table X9, 21 DAT, solo Ex. 5 250 gai/ha
[5] = Table X13, 20 DAT, solo Ex. 5 31.25 gai/ha
[6] = Table X13, 20 DAT, solo Ex. 5 62.5 gai/ha
[7] = Table X13, 20 DAT, solo Ex. 5 125 gai/ha
[8] = 20 DAT, solo Ex. 5 31.25 gai/ha
[9] = Ex. 5 solo, 62.5 gai/ha, 21 DAT

O=C(O)c1nc(C2CC2)ncc1-c1ccccc1Cl [Ex. 5]
68%: % activity (Avena fatua [2]; solo Ex. 5 62.5 gai/ha, 20 DAT)
0%: % activity, solo application (Galium aparine; 62.5 gai/ha, 20 DAT, Table X1) | % activity, solo application (Galium aparine; 62.5 gai/ha, 20 DAT, Table X2) | % activity, solo application (Galium aparine; 62.5 gai/ha, 20 DAT, Table X6) | % activity (Galium aparine; [3]) | % activity (Galium aparine; Ex. 5 solo, 125 gai/ha, 20 DAT) | % activity (Galium aparine; [8]) | % activity (Galium aparine; 20 DAT, solo Ex. 5 62.5 gai/ha) | % activity (Galium aparine; 20 DAT, solo Ex. 5 125 gai/ha) | % activity (Galium aparine; solo Ex. 5 31.25 gai/ha, 20 DAT) | % activity (Galium aparine; solo Ex. 5 62.5 gai/ha, 20 DAT) | % activity (Galium aparine; solo Ex. 5 125 gai/ha, 20 DAT) | % activity (Galium aparine; Table X9, 21 DAT, solo Ex. 5 125 gai/ha) | % activity (Galium aparine; [4]) | % activity (Galium aparine; Table X10, 20 DAT, solo Ex. 5 62.5 gai/ha) | % activity (Galium aparine; Table X11, 20 DAT, solo Ex. 5 62.5 gai/ha) | % activity (Galium aparine; Table X11, 20 DAT, solo Ex. 5 125 gai/ha) | % activity (Galium aparine; solo, 31.25 gai/ha, 20 DAT) | % activity (Galium aparine; solo, 62.5 gai/ha, 20 DAT) | % activity (Galium aparine; solo, 125 gai/ha, 20 DAT)
95%: % activity, solo application (Brachiaria decumbens; 125 gai/ha, 20 DAT, Table X6) | % activity, solo application (Polygonum aviculare; 125 gai/ha, 20 DAT) | % activity, solo application (Polygonum aviculare; 250 gai/ha, 20 DAT)
75% and 80%: % activity (Avena fatua [2]; Table X12, 20 DAT, solo Ex. 5 62.5 gai/ha)
25%: % activity (Galium aparine; solo, 250 gai/ha, 21 DAT)
65%: % activity (Avena fatua [1]; [5])
20%: % activity (Galium aparine; Table X10, 20 DAT, solo Ex. 5 125 gai/ha) | % activity (Galium aparine; [6]) | % activity (Brachiaria decumbens; [8])
40%: % activity, solo application (Galium aparine; 125 gai/ha, 20 DAT, Table X2)
80%: % activity (Avena fatua [1]; [6]) | % activity (Avena fatua [2]; [9]) | % activity (Avena fatua [2]; Ex. 5 solo, 125 gai/ha, 21 DAT) | % activity (Avena fatua [2]; solo, 250 gai/ha, 20 DAT) | % activity (Apera spica-venti; solo, 125 gai/ha) | % activity, solo application (Brachiaria decumbens; 62.5 gai/ha, 20 DAT, Table X2)
85% and 90%: % activity (Apera spica-venti; solo, 250 gai/ha)
70% and 55%: % activity (Avena fatua [2]; solo, 62.5 gai/ha, 20 DAT)
75% and 80% and 60%: % activity (Avena fatua [2]; solo, 125 gai/ha, 20 DAT)
35%: % activity (Galium aparine; Table X10, 20 DAT, solo Ex. 5 250 gai/ha) | % activity (Galium aparine; [7])
55%: % activity (Brachiaria decumbens; solo, 31.25 gai/ha, 20 DAT)
70%: % activity, solo application (Avena fatua [2]; 125 gai/ha, 20 DAT, Table X5) | % activity (Avena fatua [2]; solo Ex. 5 125 gai/ha, 20 DAT) | % activity (Avena fatua [2]; Table X12, 20 DAT, solo Ex. 5 31.25 gai/ha) | % activity (Apera spica-venti; solo, 62.5 gai/ha) | % activity (Brachiaria decumbens; 20 DAT, solo Ex. 5 125 gai/ha) | % activity (Brachiaria decumbens; Ex. 5 solo, 125 gai/ha, 20 DAT)
75%: % activity (Avena fatua [1]; [3]) | % activity, solo application (Avena fatua [2]; 125 gai/ha, 20 DAT, Table X4) | % activity, solo application (Avena fatua [2]; 250 gai/ha, 20 DAT, Table X5) | % activity (Avena fatua [2]; solo Ex. 5 62.5 gai/ha, 20 DAT, 2nd series of rows) | % activity (Avena fatua [2]; solo Ex. 5 500 gai/ha, 20 DAT) | % activity (Apera spica-venti; solo Ex. 5 62.5 gai/ha)
85%: % activity (Avena fatua [1]; [7]) | % activity (Avena fatua [2]; 20 DAT, solo Ex. 5 125 gai/ha) | % activity (Avena fatua [2]; 20 DAT, solo Ex. 5 250 gai/ha) | % activity (Avena fatua [2]; Ex. 5 solo, 250 gai/ha, 21 DAT) | % activity (Avena fatua [2]; Table X12, 20 DAT, solo Ex. 5 125 gai/ha) | % activity (Brachiaria decumbens; [5]) | % activity (Brachiaria decumbens; solo, 62.5 gai/ha, 20 DAT)
60%: % activity (Brachiaria decumbens; 20 DAT, solo Ex. 5 62.5 gai/ha) | % activity (Brachiaria decumbens; [3])
90%: % activity (Avena fatua [1]; Ex. 5 solo, 125 gai/ha, 20 DAT) | % activity (Avena fatua [1]; [4]) | % activity (Avena fatua [2]; Table X12, 20 DAT, solo Ex. 5 250 gai/ha) | % activity (Polygonum aviculare; [9]) | % activity (Polygonum aviculare; 20 DAT, solo Ex. 5 62.5 gai/ha) | % activity (Polygonum aviculare; 20 DAT, solo Ex. 5 125 gai/ha) | % activity (Polygonum aviculare; 20 DAT, solo Ex. 5 125 gai/ha (Table X66))
75% and 70%: % activity (Avena fatua [2]; solo Ex. 5 250 gai/ha, 20 DAT)
